Laboratory results taken from PMC12455996, “TGF-β inhibitor SB431542 suppresses SARS-CoV-2 replication through multistep inhibition” (Journal of Virology, 2025).

Target: T1, SARS-CoV-2 ORF3a (Severe acute respiratory syndrome coronavirus 2, UniProt P0DTC3)
T1 construct: gene 3a
Experiment: isothermal titration calorimetry
Assay type: binding

T1 sequence (P0DTC3 whole entry): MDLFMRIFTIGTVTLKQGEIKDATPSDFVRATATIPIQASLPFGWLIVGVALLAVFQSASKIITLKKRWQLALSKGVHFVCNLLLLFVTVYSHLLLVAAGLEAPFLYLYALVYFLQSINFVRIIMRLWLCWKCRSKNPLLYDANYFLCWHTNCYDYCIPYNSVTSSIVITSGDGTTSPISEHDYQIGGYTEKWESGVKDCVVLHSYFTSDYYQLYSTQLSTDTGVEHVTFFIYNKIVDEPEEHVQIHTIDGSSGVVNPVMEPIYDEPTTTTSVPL

**Q.** `NC(=O)c1ccc(-c2nc(-c3ccc4c(c3)OCO4)c(-c3ccccn3)[nH]2)cc1` [SB431542] was tested. Which Kd did it give?
**A.** 220 ± 68.1 nM
